Assay results from the Deep4Chem optical property database.
Blank lines part the entries; values can stand above or below the compound they belong to.

Assay: solvent given as SMILES
[1] = in c1cc(-c2cccc(-n3c4ccccc4c4ccccc43)c2)cc(-n2c3ccccc3c3ccccc32)c1
[2] = in O=P(c1ccccc1)(c1ccccc1)c1ccccc1Oc1ccccc1P(=O)(c1ccccc1)c1ccccc1

Compound: CC1(C)C(/C=C/C2=C(c3ccc(C(=O)O)cc3)C(=C/C=C3/N(CCCCS(=O)(=O)[O-])c4ccc5ccccc5c4C3(C)C)/CCC2)=[N+](CCCCS(=O)(=O)[O-])c2ccc3ccccc3c21
- fluorescence lifetime (in CC(C)=O): 0.84 ns
- fluorescence lifetime (in CCO): 0.69 ns
- fluorescence lifetime (in CO): 0.61 ns
- fluorescence lifetime (in CS(C)=O): 0.98 ns
- fluorescence lifetime (in ClC(Cl)Cl): 1.62 ns
- fluorescence lifetime (in ClCCl): 1.34 ns
- fluorescence lifetime (in O): 0.2 ns

- fluorescence lifetime [1]: 35 ns
Compound: CC1(C)c2ccccc2N(c2ccc(-c3cc(C#N)c(C#N)cc3-c3ccc(N4c5ccccc5C(C)(C)c5ccccc54)cc3)cc2)c2ccccc21

- fluorescence lifetime (in C1CCCCC1): 3.3 ns
- fluorescence lifetime (in c1ccccc1): 0.79 ns
Compound: CN(C)c1ccc2c(c1)C(=O)c1ccccc1-2

Compound: O=P1(c2ccccc2)c2ccc(N3c4ccccc4Oc4ccccc43)cc2-c2cc(N3c4ccccc4Oc4ccccc43)ccc21
- fluorescence lifetime (in c1ccc2c(c1)c1ccccc1n2-c1ccc(-c2ccc(-n3c4ccccc4c4ccccc43)cc2)cc1): 35.1 ns

- fluorescence lifetime (in CO): 1.69 ns
Compound: C/C(=N\Nc1ccc(C#N)cc1)c1ccccn1

- fluorescence lifetime (in ClCCl): 2.8 ns
Compound: CCOC(=O)c1ccc(C2=Cc3cc4ccccc4cc3P2(=O)c2ccccc2)cc1 (configuration not stated)

- fluorescence lifetime (in C1COCCO1): 0.08 ns
- fluorescence lifetime (in CC#N): 0.15 ns
- fluorescence lifetime (in CCO): 0.79 ns
- fluorescence lifetime (in OCC(F)(F)F): 2.4 ns
Compound: Cc1oc2c(Cl)cc3c(C)cc(=O)oc3c2c1C

- fluorescence lifetime (in C1CCCCC1): 5.1 ns
- fluorescence lifetime (in CCOC(C)=O): 4.6 ns
- fluorescence lifetime (in CO): 4.3 ns
Compound: c1ccc2c(-n3cnc4ccccc43)cccc2c1

- fluorescence lifetime (in ClCCl): 2.06 ns
Compound: COC(=O)c1cc(=O)n(Cc2ccccc2)c2cc(-c3ccc(OC)cc3)sc12

- fluorescence lifetime (in ClCCl): 11.4 ns
Compound: CCN(CC)c1ccc2cc(-c3nc4c5cccc6ccc7cccc(c7c65)c4n3-c3ccc(C(C)(C)C)cc3)c(=O)oc2c1

- fluorescence lifetime (in C1CCCCC1): 2 ns
Compound: CN(C)C(=O)c1ccc(-c2nc3ccc(N(C)C)cc3s2)cc1

- fluorescence lifetime (in C1CCOC1): 3.18 ns
Compound: COc1cc2c(cc1-c1cccs1)Cc1c3c(c4c(c1-2)-c1cc(OC)c(-c2cccs2)cc1C4)C(=O)N(CCC(C)C)C3=O

- fluorescence lifetime (in ClC(Cl)Cl): 1.29 ns
Compound: F[B-]1(F)OC(c2ccccc2)=Cc2ccc3ccccc3[n+]21

- fluorescence lifetime (in ClCCl): 2 ns
Compound: CC(=O)c1ccc(-c2cc(C)[o+]c(C)c2)cc1

- fluorescence lifetime (in ClCCl): 1.7 ns
Compound: COCCOCCOCCOCC(COCCOCCOCCOC)Oc1cc(/C=C/c2ccc(C=C(C#N)C#N)cc2)c(OC(COCCOCCOCCOC)COCCOCCOCCOC)cc1/C=C/c1ccc(C=C(C#N)C#N)cc1

Compound: F[B-]1(F)n2c(Nc3cccc4cccnc34)ccc2C(c2ccccc2)=C2C=CC(Cl)=[N+]21
- fluorescence lifetime (in C1CCCCC1): 3.21 ns
- fluorescence lifetime (in Cc1ccccc1): 0.82 ns

Compound: CN(C)c1ccc(C2=Nc3sc4cc(F)ccc4[n+]3[B-](F)(F)O2)cc1
- fluorescence lifetime (in Cc1ccccc1): 1.68 ns

- fluorescence lifetime (in C1CCOC1): 6 ns
Compound: CCCCn1c2ccccc2c2c1c1c3ccccc3n(CCCC)c1c1c3ccccc3n(CCCC)c21

- fluorescence lifetime (in ClCCl): 3.7 ns
Compound: Cc1nc(-c2cc(C(F)(F)F)ccc2O)n2c1CCCC2

Compound: COc1ccc(C2=C3C(C)=CC(C)=[N+]3[B-](F)(F)n3c(C)cc(C)c32)cc1
- fluorescence lifetime (in Cc1ccccc1): 4.86 ns

Compound: C(=C\c1ccc(N(c2ccc(/C=C/c3ccc(N(c4ccccc4)c4ccccc4)cc3)cc2)c2ccc(/C=C/c3ccc(/C=C/c4ccc(N(c5ccc(/C=C/c6ccc(N(c7ccccc7)c7ccccc7)cc6)cc5)c5ccc(/C=C/c6ccc(N(c7ccccc7)c7ccccc7)cc6)cc5)cc4)c4nsnc34)cc2)cc1)/c1ccc(N(c2ccccc2)c2ccccc2)cc1
- fluorescence lifetime (in C1CCOC1): 1.83 ns
- fluorescence lifetime (in CCOC(C)=O): 1.85 ns
- fluorescence lifetime (in Cc1ccccc1): 3.61 ns
- fluorescence lifetime (in ClC(Cl)Cl): 2.08 ns
- fluorescence lifetime (in ClCCl): 1.86 ns

- fluorescence lifetime (in C1CCCCC1): 64 ns
Compound: C[Si](C)(C)c1cccc2ccccc12

- fluorescence lifetime (in c1cc(-n2c3ccccc3c3ccccc32)cc(-n2c3ccccc3c3ccccc32)c1): 7.8 ns
Compound: COc1ccc(-c2ccc3c(c2)c2cc(-c4ccc(OC)cc4)ccc2n3-c2ccc(C(=O)c3ccc4sc5ccccc5c4c3)cc2)cc1

- fluorescence lifetime (in CC#N): 1.37 ns
- fluorescence lifetime (in CCCCCC): 0.51 ns
Compound: C(=C\c1ccc(N(c2ccccc2)c2ccccc2)cc1)/c1ccccc1

- fluorescence lifetime (in CCOC(C)=O): 2.41 ns
Compound: C[Si](C)(C)c1cc2c(cc3ccc4cccc5ccc2c3c45)[nH]1

- fluorescence lifetime (in CCO): 2.19 ns
Compound: CC(C)c1cc(C(C)C)c(-c2nnc(-c3ccc(-n4c5ccccc5c5ccccc54)cc3)o2)c(C(C)C)c1

- fluorescence lifetime (in C1CCOC1): 7.32 ns
Compound: Nc1ccccc1/C=C/C(F)(F)F

- fluorescence lifetime (in C1CCOC1): 2.32 ns
- fluorescence lifetime (in C1COCCO1): 2.29 ns
- fluorescence lifetime (in CC#N): 2.29 ns
- fluorescence lifetime (in CC(C)O): 2 ns
- fluorescence lifetime (in CCO): 1.88 ns
- fluorescence lifetime (in CCOC(C)=O): 2.34 ns
- fluorescence lifetime (in CN(C)C=O): 2.35 ns
- fluorescence lifetime (in CO): 1.68 ns
- fluorescence lifetime (in CS(C)=O): 2.49 ns
- fluorescence lifetime (in O): 3.2 ns
Compound: NS(=O)(=O)c1ccc(N2N=C(c3ccc(O)cc3)CC2c2ccc(Cl)cc2)cc1 (configuration not stated)

- fluorescence lifetime (in ClCCl): 4.9 ns
Compound: COc1ccc(Oc2ccc3c4c(cccc24)C(=O)N(c2c(C(C)C)cccc2C(C)C)C3=O)cc1

- fluorescence lifetime (in ClCCl): 5.4 ns
Compound: N#Cc1ccc(-n2c(-c3ccc(-c4ccc(N(c5ccccc5)c5ccccc5)cc4)s3)nc3c4ccccc4c4ccccc4c32)c2ccccc12

Compound: COc1ccc(C2=C3C(C)=CC(C=Cc4ccc(C(=O)OC5C[C@H]6CCC5(C)C6(C)C)cc4)=[N+]3[B-](F)(F)n3c(C)cc(C)c32)cc1 (some centres not stated)
- fluorescence lifetime (in Cc1ccccc1): 3.82 ns

- fluorescence lifetime (in C1CCCCC1): 2.93 ns
- fluorescence lifetime (in C1CCOC1): 4.54 ns
- fluorescence lifetime (in C1COCCO1): 3.97 ns
- fluorescence lifetime (in CC#N): 4.04 ns
- fluorescence lifetime (in CCOC(C)=O): 4.65 ns
- fluorescence lifetime (in CN(C)C=O): 6.28 ns
- fluorescence lifetime (in CO): 5.08 ns
- fluorescence lifetime (in ClC(Cl)Cl): 3.86 ns
Compound: O=C(O)c1ccccc1Nc1cccc(C(F)(F)F)c1

- fluorescence lifetime (in CC#N): 101 ns
Compound: COC(=O)[C@@]12N=N[C@@](C(=O)OC)(C3[C@H]1C3(C)C)[C@H]1[C@@H]2C1(C)C (some centres not stated)

- fluorescence lifetime (in ClCCl): 0.3 ns
Compound: CC1=C(I)C(C)=[N+]2C1=C(c1c(-c3ccccn3)nc3ccccn13)c1c(C)cc(C)n1[B-]2(F)F

- fluorescence lifetime (in ClCCl): 0.86 ns
Compound: O=C1c2ccccc2C2=Nc3cccc4cccc(c34)N12

- fluorescence lifetime [1]: 15 ns
Compound: CC(C)c1cc(C(C)C)c(B2c3cc(-n4c5ccc(C(C)(C)C)cc5c5cc(C(C)(C)C)ccc54)ccc3N(c3ccccc3)c3ccc(-n4c5ccc(C(C)(C)C)cc5c5cc(C(C)(C)C)ccc54)cc32)c(C(C)C)c1

- fluorescence lifetime (in ClCCl): 2.1 ns
Compound: CCCCCCN(CCCCCC)c1ccc(C#Cc2ccc(C(F)(F)F)cc2)cc1

- fluorescence lifetime (in CO): 1.17 ns
- fluorescence lifetime (in ClC(Cl)Cl): 4.15 ns
Compound: CCN1C(=CC2=C([O-])C(=Cc3[se]c4ccccc4[n+]3CC)C2=O)[Se]c2ccccc21

- fluorescence lifetime (in C1CCOC1): 7.83 ns
- fluorescence lifetime (in CO): 13.8 ns
Compound: CCOC(=O)C1=CNC=C(C(=O)OCC)C1c1ccccc1

- fluorescence lifetime (in CC#N): 1.03 ns
- fluorescence lifetime (in CO): 0.96 ns
- fluorescence lifetime (in O): 1.47 ns
Compound: CSc1ccc2c(c1)N(CCCN1CCN(C)CN1C)c1ccccc1S2

- fluorescence lifetime (in C1CCCCC1): 5.6 ns
Compound: Nc1ccc2ccc3cccc4ccc1c2c34

- fluorescence lifetime (in ClCCl): 5.7 ns
Compound: Cc1cccc(-c2c3ccccc3cc3ccccc23)n1

- fluorescence lifetime (in O): 15.1 ns
Compound: Cc1ccc2c(c1)c(=O)c1ccccc1n2CCCCCC(=O)O

Compound: c1ccc(-c2nc(-c3ccccc3)c(-c3ccccc3)o2)cc1
- fluorescence lifetime (in Cc1ccccc1): 1.27 ns

- fluorescence lifetime (in C1CCCCC1): 0.58 ns
- fluorescence lifetime (in C1COCCO1): 0.69 ns
- fluorescence lifetime (in CC#N): 1.14 ns
- fluorescence lifetime (in CCO): 1.02 ns
- fluorescence lifetime (in CS(C)=O): 1.24 ns
- fluorescence lifetime (in ClC(Cl)Cl): 0.74 ns
- fluorescence lifetime (in ClCCl): 0.85 ns
Compound: COc1ccc(C#Cc2ccc(C#Cc3ccc(P(=O)(c4ccc(C#Cc5ccc(C#Cc6ccc(OC)cc6)cc5)cc4)c4ccc(C#Cc5ccc(C#Cc6ccc(OC)cc6)cc5)cc4)cc3)cc2)cc1

Compound: c1ccc(-c2cc(-c3ccc4ccc5cccc6ccc3c4c56)ccn2)nc1
- fluorescence lifetime (in C1CCOC1): 6.5 ns
- fluorescence lifetime (in CC#N): 4.7 ns
- fluorescence lifetime (in CCC#N): 4.6 ns
- fluorescence lifetime (in CCCC#N): 5.5 ns
- fluorescence lifetime (in CCCCCC): 8.1 ns
- fluorescence lifetime (in CCCO): 3.5 ns
- fluorescence lifetime (in CCO): 3.5 ns
- fluorescence lifetime (in CO): 3.1 ns
- fluorescence lifetime (in Cc1ccccc1): 6 ns

- fluorescence lifetime (in CC#N): 1 ns
Compound: c1ccc(-[c+]2c3ccccc3sc3ccccc32)cc1

- fluorescence lifetime (in CCCCCC): 0.45 ns
Compound: COc1ccc2c(c1)N(c1ccccc1-c1ccccc1)c1cc3c(cc1=N2)Oc1c(cc(C(C)(C)C)cc1C(C)(C)C)N=3

- fluorescence lifetime (in ClC(Cl)Cl): 5.48 ns
Compound: CCCCn1c(=O)c2cc3ccc4cccc5ccc(c2c1=O)c3c45

Compound: CC1(C)c2ccccc2-c2cc3c4ccccc4n(-c4ccc(-c5nc(-c6ccccc6)nc(-c6ccccc6)n5)cc4)c3cc21
- fluorescence lifetime [2]: 9.3 ns

- fluorescence lifetime (in ClCCl): 0.3 ns
Compound: CCOC(=O)/N=c1/oc2ccc(OC)cc2cc1C#N

- fluorescence lifetime (in ClC(Cl)Cl): 1.35 ns
Compound: CCCCc1cc(-c2cccc(COC)c2)oc1-c1cccc(COC)c1

- fluorescence lifetime (in C1CCCCC1): 2.3 ns
- fluorescence lifetime (in CCOC(C)=O): 0.58 ns
Compound: C#CCNC1=C2C=C(c3cc4n(c3)[B-](F)(F)[N+]3=CC=CC3=C4c3c(C)cc(C)cc3C)C(C)=[N+]2[B-](F)(F)n2c(C)ccc21

Compound: Cc1cc(-c2nc(-c3ccccc3)nc(-c3ccccc3)n2)ccc1-n1c2ccccc2c2cc3c(cc21)C1c2ccccc2C3c2ccccc21
- fluorescence lifetime [2]: 10.6 ns

Compound: C(=C\c1ccc(-c2ccc(/C=C/c3ccc(-n4c5ccccc5c5ccccc54)cc3)s2)s1)/c1ccc(-n2c3ccccc3c3ccccc32)cc1
- fluorescence lifetime (in C1CCOC1): 1.06 ns
- fluorescence lifetime (in CC#N): 1.08 ns
- fluorescence lifetime (in CC(C)=O): 1.08 ns
- fluorescence lifetime (in CN(C)C=O): 1.08 ns
- fluorescence lifetime (in Cc1ccccc1): 1.05 ns

- fluorescence lifetime (in ClC(Cl)Cl): 1.11 ns
Compound: Fc1cccc(C2=Cc3ccc4ccccc4[n+]3[B-](F)(F)O2)c1

Compound: N#Cc1c(-n2c3ccc(-c4ccccc4)cc3c3cc(-c4ccccc4)ccc32)c(-n2c3ccccc3c3ccccc32)c(-n2c3ccc(-c4ccccc4)cc3c3cc(-c4ccccc4)ccc32)c(-n2c3ccccc3c3ccccc32)c1-n1c2ccc(-c3ccccc3)cc2c2cc(-c3ccccc3)ccc21
- fluorescence lifetime (in Cc1ccccc1): 5.2 ns

- fluorescence lifetime (in ClCCl): 4.8 ns
Compound: N#Cc1ccc(C2=Cc3ccccc3P2(=O)c2ccccc2)cc1 (configuration not stated)

Compound: O=S(=O)(c1ccc(-c2ccc(-n3c4ccccc4c4ccccc43)cc2)cc1)c1ccc(-c2ccc(-n3c4ccccc4c4ccccc43)cc2)cc1
- fluorescence lifetime (in Cc1ccccc1): 2.55 ns

- fluorescence lifetime (in ClCCl): 0.423 ns
Compound: FC(F)(F)c1ccc(/C2=C3N=C(C(c4ccccc4)=C/3c3ccccc3)/C(c3ccc(C(F)(F)F)cc3)=c3\[nH]/c(c(-c4ccccc4)c3-c3ccccc3)=C(/c3ccc(C(F)(F)F)cc3)C3=N/C(=C(/c4ccc(C(F)(F)F)cc4)c4[nH]c2c(-c2ccccc2)c4-c2ccccc2)C(c2ccccc2)=C3c2ccccc2)cc1
